We go through 1 molecule from paper PMC10930102 (Journal of Enzyme Inhibition and Medicinal Chemistry, 2024).

SMILES strings stand for the structures.

Assay [1] concerns MCF7. Kind of assay: SRB antiproliferation assay. It counts as cell-based. To be noted: Homo sapiens, 48 h, read-out: Antiproliferative activity (IC50) MCF7. (In general: Sulforhodamine B stains cellular protein and so reports cell mass.)
The test system of assay [2] is U87MG. The assay is described as follows: SRB antiproliferation assay. It counts as cell-based. To be noted: Homo sapiens, U-87 MG, 48 h, read-out: Antiproliferative activity (IC50) U87MG.
Assay [3] addresses T1, ALK F1174L (Homo sapiens, UniProt Q9UM73, F1174L).
T1 construct: purchased Reaction Biology Corporation
Kind of assay: ALK mutant in vitro enzymatic assay. It counts as biochemical. The conditions noted are these: 20 μM ATP.

Assay [4] relates to protein expression level of HDAC1, HDAC6, or HDAC8. Kind of assay: Western blot of HDAC protein expression. The conditions noted are these: western blot after treatment (supplemental Figure S3). It counts as cell-based, human. As for the experimental part:
Treated cells were washed three times with ice-cold phosphate-buffered saline and lysed in lysis buffer containing 100 mM Tris-HCl, 12 mM sodium deoxycholate, 12 mM sodium lauroylsarcosinate, and protease inhibitor cocktail (BioTools). Cells were heated in lysis buffer at 95 °C for 5 min and then the cell membrane was broken up by sonication (Bioruptor). Cellular debris and unbroken cells were removed by centrifugation (12,500 × g for 30 min, 4 °C). Protein concentration was determined using the bicinchoninic acid assay (Thermo). Cell extracts (20 μg) were resolved by 12% sodium dodecyl sulfate-polyacrylamide gel electrophoresis (SDS-PAGE), transferred to PVDF membranes, and probed separately with antibodies for Ac-histone H3, Ac-α-tubulin, histone H3, α-tubulin, HDAC1, HDAC6, HDAC8 and GAPDH. The antibodies of GAPDH, HDAC1, and HDAC8 were purchased from ABclonal and all other antibodies were from Cell Signalling Technology. Antibody signals were detected using an enhanced chemiluminescence system.
Figure S3. Western blots of HDAC1, HDAC6, and HDAC8 after drug treatment and vehicle control
activity was assessed by MTS assay, and the concentration of inhibitors was determined to be half of their
was tested five times, and the results were normalized to 1. (blank) […]
Background: Immunoblotting shows a protein as a band on a membrane.

The target of assay [5] is T2, CYP3A4 (Homo sapiens, UniProt P08684).
T2 construct: purchased Reaction Biology Corporation; host or cells: CYP cDNA baculovirus expression systems
Kind of assay: CYP450 inhibition assay. It counts as in vitro ADME. The conditions noted are these: human recombinant enzyme.

T2 sequence (P08684 whole entry): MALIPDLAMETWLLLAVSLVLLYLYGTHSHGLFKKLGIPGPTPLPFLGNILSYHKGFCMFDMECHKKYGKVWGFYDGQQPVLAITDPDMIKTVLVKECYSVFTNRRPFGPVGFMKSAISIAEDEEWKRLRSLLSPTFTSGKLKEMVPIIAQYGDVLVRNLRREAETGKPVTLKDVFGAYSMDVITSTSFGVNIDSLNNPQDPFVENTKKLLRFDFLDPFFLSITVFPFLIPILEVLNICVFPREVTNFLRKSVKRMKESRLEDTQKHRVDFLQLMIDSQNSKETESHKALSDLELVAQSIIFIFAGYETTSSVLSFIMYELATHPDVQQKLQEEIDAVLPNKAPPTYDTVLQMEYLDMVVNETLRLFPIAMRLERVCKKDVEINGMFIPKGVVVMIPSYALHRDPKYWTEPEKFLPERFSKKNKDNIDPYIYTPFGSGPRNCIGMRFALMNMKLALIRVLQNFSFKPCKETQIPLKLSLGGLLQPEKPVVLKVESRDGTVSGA
T1 sequence (Q9UM73 19-1620 F1174L): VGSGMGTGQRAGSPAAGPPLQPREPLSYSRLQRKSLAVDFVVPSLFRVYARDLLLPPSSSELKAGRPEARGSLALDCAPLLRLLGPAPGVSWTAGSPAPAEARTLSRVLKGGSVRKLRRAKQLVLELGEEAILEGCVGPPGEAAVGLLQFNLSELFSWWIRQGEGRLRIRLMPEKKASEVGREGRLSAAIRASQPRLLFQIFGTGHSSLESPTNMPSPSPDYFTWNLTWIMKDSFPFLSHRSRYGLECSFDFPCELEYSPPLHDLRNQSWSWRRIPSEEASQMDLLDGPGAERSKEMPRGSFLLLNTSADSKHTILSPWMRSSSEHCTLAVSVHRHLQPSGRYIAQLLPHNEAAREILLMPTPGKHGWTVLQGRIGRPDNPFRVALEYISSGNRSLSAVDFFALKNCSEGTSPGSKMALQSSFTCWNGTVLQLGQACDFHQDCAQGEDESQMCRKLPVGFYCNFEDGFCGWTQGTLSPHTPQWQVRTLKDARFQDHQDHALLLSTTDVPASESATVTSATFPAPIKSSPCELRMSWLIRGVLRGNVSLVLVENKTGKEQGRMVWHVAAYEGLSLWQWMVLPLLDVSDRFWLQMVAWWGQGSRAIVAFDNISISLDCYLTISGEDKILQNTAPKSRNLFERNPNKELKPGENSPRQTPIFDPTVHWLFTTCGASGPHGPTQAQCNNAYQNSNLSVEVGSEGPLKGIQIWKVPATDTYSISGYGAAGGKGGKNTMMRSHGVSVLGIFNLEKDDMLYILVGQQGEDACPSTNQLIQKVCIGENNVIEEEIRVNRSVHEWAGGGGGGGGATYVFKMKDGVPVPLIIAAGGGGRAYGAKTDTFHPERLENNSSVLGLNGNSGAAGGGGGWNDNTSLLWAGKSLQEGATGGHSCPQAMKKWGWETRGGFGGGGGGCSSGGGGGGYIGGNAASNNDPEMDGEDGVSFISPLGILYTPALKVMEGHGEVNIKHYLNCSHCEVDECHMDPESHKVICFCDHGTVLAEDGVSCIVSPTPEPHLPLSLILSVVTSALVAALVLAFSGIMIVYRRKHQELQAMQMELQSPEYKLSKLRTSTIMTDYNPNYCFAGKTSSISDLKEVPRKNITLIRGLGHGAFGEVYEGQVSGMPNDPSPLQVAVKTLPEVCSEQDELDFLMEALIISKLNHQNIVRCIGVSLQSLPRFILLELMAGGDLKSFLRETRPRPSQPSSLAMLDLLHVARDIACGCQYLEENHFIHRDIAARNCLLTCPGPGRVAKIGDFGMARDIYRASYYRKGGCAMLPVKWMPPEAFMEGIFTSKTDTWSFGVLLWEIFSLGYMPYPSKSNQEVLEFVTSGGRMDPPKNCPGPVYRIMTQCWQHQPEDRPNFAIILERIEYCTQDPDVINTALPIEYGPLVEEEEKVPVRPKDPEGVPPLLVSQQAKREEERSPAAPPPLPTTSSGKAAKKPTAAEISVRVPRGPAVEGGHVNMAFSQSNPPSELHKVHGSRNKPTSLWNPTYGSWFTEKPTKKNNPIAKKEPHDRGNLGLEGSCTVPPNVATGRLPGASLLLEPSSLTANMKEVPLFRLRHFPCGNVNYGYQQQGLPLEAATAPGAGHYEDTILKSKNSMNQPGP

Consider `CC(C)NC(=O)C1CCC(n2c(=NC(=O)c3ccccc3)[nH]c3cc(C=CC(=O)NO)ccc32)CC1` [Compound 3b, (E)-N-(5-((E)-3-(Hydroxyamino)-3-oxoprop-1-en-1-yl)-1-((1S,4S)-4-(isopropylcarbamoyl)cyclohexyl)-1H-benzo[d]imidazol-2(3H)-ylidene)benzamide], for which the IC50 – broadly, the concentration that gives 50% inhibition – was 550 ± 10 nM in assay [1], 620 ± 100 nM in assay [2], 59 nM in assay [3] and 9370 nM in assay [5]. Also, in assay [4], the “protein expression level of HDAC1, HDAC6, or HDAC8” value was “not perturbed”.
